# Measurements: patent US20240307415A1, “STEROID COMPOUND, AND PHARMACEUTICAL COMPOSITION THEREOF AND USE THEREOF” (JIANGSU SIMCERE PHARMACEUTICAL CO., LTD., priority 2021, published 2024)
# pEC50: −log10 of the molar value.
# What was measured:
# K562-GRE reporter gene = K562-GRE reporter gene activity; type: cell-based; conditions: 24 h, read-out: K562-GRE Reporter EC50
# Description: To generate the parental K562-GRE cell line, K562 cells were seeded at 5×10^5 cells/well onto a 6-well plate (brand: Costar, Cat. No: 3516) containing 2 mL of complete medium (RPM1640, 10% FBS, penicillin-streptomycin) and cultured at 37° C. with 5% CO2 for 24 h. The next day, 3 μg of pNL2.2[NLucP/MMTV/Hygro-NANO] (Promega) and 3 μL of PLUS reagent (brand: Invitrogen, Cat. No: 11514-015) were diluted in 150 μL of Opti-MEM (brand: Gibco, Cat. No: 11058021) and incubated at room temperature for 5 min. The pNL2.2[NLucP/MMTV/Hygro-NANO] vector contains MMTV LTR (mouse mammary tumor virus long terminal repeat), which drives transcription of the luciferase reporter gene NanoLuc in response to activation of several nuclear receptors (e.g. glucocorticoid receptor and androgen receptor). After incubation, the diluted DNA solution was mixed with Lipofectamine LTX solution (brand: Invitrogen, Cat. No: 15338-100) (6 μL of Lipofectamine LTX+144 μL of Opti-MEM) in a 1:1 ratio, pre-incubated, and incubated at room temperature for 15 min to form a DNA-Lipofectamine LTX complex. After incubation, 300 μL of the DNA-Lipofectamine complex was added directly to the cell wells. The K562 cells were transfected at 37° C. with 5% CO2 for 24 h. After transfection, the cells were washed with 3 mL of PBS and selectively grown for two weeks with complete growth medium containing 125 μg/mL hygromycin B (brand: Invitrogen, Cat. No: 10687010). “K562-GRE (pNL2.2[NLucP/MMTV/Hygro-NANO])” cells were generated.
# After mixing, the cells were cultured in an incubator at 37° C. for 24 h. After 24 h of incubation, an equal volume of 100 μL of Nano-Glo luciferase assay system (brand: Promega, Cat. No: N1120) was added to the cells, the mixture was reacted in a shaker at […] for 10 min, and the chemiluminescence values were detected using the PHERAstar instrument. The antibody binding curves were plotted using the logarithmic value of the antibody concentration as the abscissa and the corresponding chemiluminescence reading as the ordinate, and the EC50 value was calculated by four-parameter fitting (GraphPad Prism9).
# [1] = Plasma protein binding rate, human plasma (equilibrium dialysis); type: in vitro ADME; conditions: pH 7.4, equilibrium dialysis 6 h, 37° C.
# Description: (§1) The protein binding rates of the compound of the present invention in plasma of 5 species (humans, monkeys, dogs, rats, and mice) were determined using the following method.
# (§2) • 1. Human plasma (BioIVT), monkey plasma (ADME-plasma-pooled monkey-05212020), beagle dog plasma (BioIVT), SD rat plasma (BioIVT), and CD-1 mouse plasma (BioIVT) • 2. Na2HPO4 (Sigma S5136-500G) • 3. NaH2PO4 (Sigma S3139-500G) • 4. NaCl (Sigma S5886-IKG) • 5. 96-well equilibrium dialysis plate (HTDialysis LLC, Gales Ferry, CT, HTD96B) and equilibrium dialysis membrane (MWCO 12-14K, 1101) • 6. Positive control compound warfarin • 7. ABI QTrap 5500 liquid chromatography-mass spectrometry system
# (§3) • 1. […] Preparation of a dialysis membrane: the dialysis membrane was soaked in ultrapure water for 60 min to separate the membrane into two pieces, then soaked with 20% ethanol for 20 min, and finally soaked with dialysis buffer for 20 min. • 3. Preparation of plasma: the frozen plasma was quickly thawed at room temperature and then centrifuged at 3,220 g at 4° C. for 10 min to remove clots, and the supernatant was collected to a new centrifuge tube. The pH of the plasma was measured and recorded. The plasma with pH 7-8 was used. • 4. […]
# (§4) The peak areas of the compound on the buffer side and the plasma side were measured. The plasma protein binding rate of the compound was calculated by the following formula: […]
# [2] = Plasma protein binding rate, mouse plasma (equilibrium dialysis); type: in vitro ADME; conditions: CD-1, mouse, pH 7.4, equilibrium dialysis 6 h, 37° C.
# Description: as §1, §2, §3, §4
compound,measurement,setting,value
"C[C@]12C=CC(=O)C=C1CC[C@@H]1[C@@H]2[C@@H](O)C[C@@]2(C)[C@H]1C[C@H]1O[C@@H](c3ccc(Cc4cc(N)c5c(c4)CCO5)cc3)O[C@]12C(=O)CO [Compound 009, (6aR,6bS,7S,8aS,8bS,10R,11aR,12aS,12bS)-10-(4-((7-amino-2,3-dihydrobenzofuran-5-yl)methyl)phenyl)-7-hydroxy-8b-(2-hydroxyacetyl)-6a,8a-dimethyl-6a,6b,7,8,8a,8b,11a,12,12a,12b-decahydro-1H-naphtho[2′,1′:4,5]indeno[1,2-d][1,3]dioxolan-4(2H)-one]",pEC50,K562-GRE reporter gene,8.24
same,"fraction unbound at 6 h, 1 μM",[1],0.002
same,"fraction unbound at 6 h, 1 μM",[2],0.002
